From patent US11504382B2, “Tricyclic inhibitors of Hepatitis B virus” (Antios Therapeutics, Inc., priority 2018, dated 2022)

Tested on: HBV
Assay: HBV inhibition assay in HepAD38 cells (extracellular HBV DNA by direct qPCR)
Format: cell-based, Hepatitis B virus
Conditions: 96 hours; for EC50: 8-point dose-response curve, read-out: HBV inh EC50
[1] = Hepatitis B virus, 0.1 μM, relative to non-treated reference, read-out: Anti HBV Activity (conc μM)

CCOC(=O)N1C[C@H]2C[C@@H]1COc1c(cn(C)c1C(=O)Nc1cc(F)c(F)c(F)c1)S(=O)(=O)N2 [Example E77, Ethyl (3R,6R)-10-methyl-9-((3,4,5-trifluorophenyl)carbamoyl)-3,4,6,7-tetrahydro-10H-3,6-methanopyrrolo[3,4-b][1,4,5,8]oxathiadiazecine-5(2H)-carboxylate 1,1-dioxide]
EC50 (Hepatitis B virus): < 1000 nM

Cn1cc2c(c1C(=O)Nc1ccc(F)c(F)c1)OC[C@@]1(O)CCC[C@H]1NS2(=O)=O (racemic) [Example E30, cis-N-(3,4-difluorophenyl)-8a-hydroxy-2-methyl-5a,6,7,8,8a,9-hexahydro-2H,5H-cyclopenta[f]pyrrolo[3,4-b][1,4,5]oxathiazocine-1-carboxamide 4,4-dioxide]
inhibition at 0.5 µM (Hepatitis B virus, 0.5 μM, relative to non-treated reference, read-out: Anti HBV Activity (conc μM)): < 50%

CCOC(=O)N1CC2COc3c(cn(C)c3C(=O)Nc3ccc(F)c(C)c3)S(=O)(=O)NC2C1 (racemic) [Example E14, Cis-Ethyl 8-((4-fluoro-3-methylphenyl)carbamoyl)-7-methyl-3a,4,10,10a-tetrahydro-1H,7H-dipyrrolo[3,4-b:3′,4′-f][1,4,5]oxathiazocine-2(3H)-carboxylate 5,5-dioxide]
inhibition at 0.1 µM [1]: > 50% | EC50 (Hepatitis B virus): < 1000 nM

Cc1cc(NC(=O)c2c3c(cn2C)S(=O)(=O)N[C@H]2CN(C(=O)[C@H]4CCCO4)C[C@H]2CO3)ccc1F [Example E100, (3aR,10aR)—N-(4-fluoro-3-methylphenyl)-7-methyl-2-((R)-tetrahydrofuran-2-carbonyl)-2,3,3a,4,10,10a-hexahydro-1H,7H-dipyrrolo[3,4-b:3′,4′-f][1,4,5]oxathiazocine-8-carboxamide 5,5-dioxide]
EC50 (Hepatitis B virus): < 1000 nM

Cc1cc(NC(=O)c2c3c(cn2C)S(=O)(=O)NC2CN(c4cccnc4)CC2CO3)ccc1F (stereo not drawn) [Example E48, cis-N-(4-fluoro-3-methylphenyl)-7-methyl-2-(pyridin-3-yl)-2,3,3a,4,10,10a-hexahydro-1H,7H-dipyrrolo[3,4-b:3′,4′-f][1,4,5]oxathiazocine-8-carboxamide 5,5-dioxide]
EC50 (Hepatitis B virus): < 1000 nM

CCOC(=O)N1CC2COc3c(cn(C)c3C(=O)Nc3ccc(F)c(C(F)F)c3)S(=O)(=O)NC2C1 (single isomer, unassigned) [Example E44, Ethyl 8-((3-(difluoromethyl)-4-fluorophenyl)carbamoyl)-7-methyl-3a,4,10,10a-tetrahydro-1H,7H-dipyrrolo[3,4-b:3′,4′-f][1,4,5]oxathiazocine-2(3H)-carboxylate 5,5-dioxide (Chiral 3aS,10aS or 3aR,10aR - Stereochemistry unknown)]
Anti HBV Activity (conc μM) (0.1 μM, relative to non-treated reference): B (0.1) (HBV inhibition less than 50% at the concentration indicated in the table)

Cc1cc(NC(=O)c2c3c(cn2C)S(=O)(=O)NC2CN(c4ccnc(Cl)c4)CC2CO3)ccc1F (stereo not drawn) [Example E76, cis-2-(2-chloropyridin-4-yl)-N-(4-fluoro-3-methylphenyl)-7-methyl-2,3,3a,4,10,10a-hexahydro-1H,7H-dipyrrolo[3,4-b:3′,4′-f][1,4,5]oxathiazocine-8-carboxamide 5,5-dioxide]
inhibition at 0.05 µM (Hepatitis B virus, 0.05 μM, relative to non-treated reference, read-out: Anti HBV Activity (conc μM)): > 50% | EC50 (Hepatitis B virus): < 1000 nM

CC(=O)OCC(=O)N1CC2COc3c(cn(C)c3C(=O)Nc3cc(F)c(F)c(F)c3)S(=O)(=O)NC2C1 (stereo not drawn) [Example E70, cis-2-(7-methyl-5,5-dioxido-8-((3,4,5-trifluorophenyl)carbamoyl)-3a,4,10,10a-tetrahydro-1H,7H-dipyrrolo[3,4-b:3′,4′-f][1,4,5]oxathiazocin-2(3H)-yl)-2-oxoethyl acetate]
inhibition at 0.1 µM [1]: < 50%

Cc1cc(NC(=O)c2c3c(cn2C)S(=O)(=O)N[C@H]2CN(C(=O)c4cocn4)C[C@H]2CO3)ccc1F [Example E104, (3aR,10aR)—N-(4-fluoro-3-methylphenyl)-7-methyl-2-(oxazole-4-carbonyl)-2,3,3a,4,10,10a-hexahydro-1H,7H-dipyrrolo[3,4-b:3′,4′-f][1,4,5]oxathiazocine-8-carboxamide 5,5-dioxide]
EC50 (Hepatitis B virus): < 1000 nM
